Here are results for seven compounds from article PMC3786134 (ChemMedChem, 2012).

One experiment deals with APOBEC3A (A3A) (Homo sapiens, UniProt P31941). Kind of experiment: fluorescence ssDNA C-to-U deaminase assay. The format is biochemical.
Another experiment addresses APOBEC3G (A3G) (Homo sapiens, UniProt Q9HC16). The experiment is described as follows: fluorescence ssDNA C-to-U deaminase assay. The format is biochemical.

SMILES strings stand for the structures. A value given as a limit tells only on which side of the number the result lay.

Sequence of APOBEC3A (A3A) (P31941 whole entry): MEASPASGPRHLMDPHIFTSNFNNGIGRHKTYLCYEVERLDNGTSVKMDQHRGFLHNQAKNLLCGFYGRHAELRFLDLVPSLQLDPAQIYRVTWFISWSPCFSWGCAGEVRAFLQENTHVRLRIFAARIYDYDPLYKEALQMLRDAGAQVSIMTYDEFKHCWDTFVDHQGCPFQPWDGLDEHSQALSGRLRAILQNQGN
Sequence of APOBEC3G (A3G) (Q9HC16 whole entry): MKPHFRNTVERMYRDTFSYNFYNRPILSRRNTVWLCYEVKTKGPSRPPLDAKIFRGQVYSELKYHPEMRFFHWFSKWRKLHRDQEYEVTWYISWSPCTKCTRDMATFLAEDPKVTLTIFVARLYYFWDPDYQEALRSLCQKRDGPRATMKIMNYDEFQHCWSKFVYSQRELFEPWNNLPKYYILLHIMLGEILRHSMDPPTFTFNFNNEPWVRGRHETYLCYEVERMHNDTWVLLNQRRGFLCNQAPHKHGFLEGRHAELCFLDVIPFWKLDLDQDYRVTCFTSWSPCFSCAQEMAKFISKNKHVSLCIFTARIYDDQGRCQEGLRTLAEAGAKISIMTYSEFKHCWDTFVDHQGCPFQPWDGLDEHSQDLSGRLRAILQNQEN

Take `Nn1cnnc1S` [compound 4, 4-amino-1,2,4-triazole-3-thiol]: the IC50 at APOBEC3A (A3A) and at APOBEC3G (A3G) was above 100 µM in each case.

In the case of `Cc1nnc(S)n1N` [compound 5, 4-amino-5-methyl-1,2,4-triazole-3-thiol], the IC50 (usually the concentration that gives 50% inhibition) was above 100 µM against APOBEC3A (A3A) and 6.1 ± 1.1 µM against APOBEC3G (A3G).

For `Cc1nnc(S)n1NC(=O)c1ccccc1` [compound 9, N-(3-mercapto-5-methyl-1,2,4-triazol-4-yl)benzamide], the figures for the half-maximal inhibitory concentration (IC50) at APOBEC3A (A3A) and on APOBEC3G (A3G) were above 100 µM and 8.2 ± 1.2 µM, respectively.

With `COc1ccc(C=Nn2c(C)nnc2S)cc1` [compound 8, 4-((4-methoxybenzylidene)amino)-5-methyl-1,2,4-triazole-3-thiol], the IC50 against APOBEC3A (A3A) is above 100 µM; on APOBEC3G (A3G), 3.9 ± 1.2 µM.

At APOBEC3A (A3A), `Cc1nnc(SCc2ccccc2)n1N` [compound 11, 3-(benzylthio)-5-methyl-1,2,4-triazol-4-amine] came in with an IC50 above 100 µM.

For `Cc1nnc(O)n1N` [compound 7, 4-amino-5-methyl-1,2,4-triazol-3-ol], the IC50 at APOBEC3A (A3A) is above 100 µM.

`S=c1[nH]ncn1N=Cc1ccc(Br)cc1` [compound 1, 4-((4-bromobenzylidene)amino)-1,2,4-triazole-3-thiol]: the IC50 was above 100 µM on APOBEC3A (A3A) and 4.3 ± 1.1 µM on APOBEC3G (A3G).
